This experiment concerns the target T1, ferroportin (Homo sapiens, UniProt Q9NP59).
T1 sequence (Q9NP59 1-571): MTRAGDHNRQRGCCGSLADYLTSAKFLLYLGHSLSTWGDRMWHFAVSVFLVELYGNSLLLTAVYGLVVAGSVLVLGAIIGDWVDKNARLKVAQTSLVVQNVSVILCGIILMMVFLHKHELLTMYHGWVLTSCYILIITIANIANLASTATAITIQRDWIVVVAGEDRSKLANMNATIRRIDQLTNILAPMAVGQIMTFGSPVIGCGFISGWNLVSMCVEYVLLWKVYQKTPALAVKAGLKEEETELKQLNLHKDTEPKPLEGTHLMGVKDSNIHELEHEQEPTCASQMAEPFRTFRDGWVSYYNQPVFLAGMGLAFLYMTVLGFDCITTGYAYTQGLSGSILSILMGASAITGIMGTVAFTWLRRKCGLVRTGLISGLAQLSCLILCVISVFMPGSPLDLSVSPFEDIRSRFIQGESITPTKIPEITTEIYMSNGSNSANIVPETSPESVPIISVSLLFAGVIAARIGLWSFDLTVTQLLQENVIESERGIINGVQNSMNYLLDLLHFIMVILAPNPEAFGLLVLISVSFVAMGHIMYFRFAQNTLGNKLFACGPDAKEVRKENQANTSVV
Description: FPN activity assay: ferroportin-GFP internalization/degradation in HEK293 cells. It counts as cell-based. On the set-up: expressed in transfected cells. To be noted: read-out: FPN IC50. The method, then:
Following internalization, the ferroporin protein is degraded.
A retro inverse peptide is a peptide with a reversed sequence in all D amino acids. An example is that Hy-Glu-Thr-His-NH2 becomes Hy-DHis-DThr-DGlu-NH2. The EC50 of these reference compounds for ferroportin internalization/degradation was determined according to the FPN activity assay described above. These peptides served as control standards.

The mark [1] stands for this setting: ferroportin-GFP HEK293 cells, at least 18 hours.

Like-named read-outs stand apart in the source and are kept apart here. Starred links: 1 amine or outer side, 2 acyl side, 3 side chain; linkers in the order of their positions; H or OH if unused. Positions of bridges follow the written chain, without caps; N, C: chain ends. Non-standard residues stand in square brackets, D forms with d. Residues, ends and D or L forms follow the SMILES beside them. Groups on a side chain read outwards from the residue. *: point of attachment. C18 diacid = O=C(O)CCCCCCCCCCCCCCCCC(=O)*; Dip = N[C@H](C(=O)O)C(c1ccccc1)c1ccccc1; γGlu = O=C(O)[C@H](CCC(=O)[*:2])N[*:1]; Palmitoyl = CCCCCCCCCCCCCCCC(=O)*; β3hF = N[C@H](CC(=O)O)Cc1ccccc1; dPen = CC(C)(S)[C@@H](N)C(=O)O; Pen = CC(C)(S)[C@H](N)C(=O)O; Isovaleryl = CC(C)CC(=O)*; hCys = N[C@@H](CCS)C(=O)O; Dap = NC[C@H](N)C(=O)O; AEEA = NCCOCCOCC(=O)O; Ahx = NCCCCCC(=O)O

Regarding `CCCCCCCCCCCCCCCC(=O)NCC[N+](C)(C)CC(=O)NCCCC[C@H](NC(=O)[C@@H]1CSSC[C@H](NC(=O)[C@H](CCC(=O)OC)NC(=O)CC(C)C)C(=O)N[C@@H](Cc2c[nH]cn2)C(=O)N[C@@H](C(c2ccccc2)c2ccccc2)C(=O)N1)C(=O)NCCCCC` [compound 123], the DC50 (Table 6D, ferroportin-GFP internalization/degradation, at least 18 hours incubation) was more than 500 nM.
Regarding `CC[C@H](C)[C@H](NC(=O)[C@@H]1CSSC[C@H](NC(=O)[C@@H](NC(=O)[C@H](Cc2c[nH]cn2)NC(=O)[C@@H](NC(=O)[C@H](CCC(=O)O)NC(=O)CC(C)C)[C@@H](C)O)C(c2ccccc2)c2ccccc2)C(=O)N1)C(=O)N[C@H](CCCCN)C(=O)N[C@H](CC(=O)N[C@@H](CCCCNC(=O)COCCOCCNC(=O)COCCOCCNC(=O)CC[C@H](NC(=O)CCCCCCCCCCCCCCCCC(=O)O)C(=O)O)C(=O)N[C@H](CCCCN)C(N)=O)Cc1ccccc1` [Compd 34] (Isovaleryl-ETH[Dip]CCI[dK][β3hF]K([AEEA-AEEA-γGlu-C18 diacid])[dK]-NH2; disulfide 5-6), under setting [1], the DC50 was in the range of 100 to 500 nM.
On the same count and under the same terms, with `CCCCCCCCCCCCCCCC(=O)NCCCCCC(=O)NCCCC[C@H](NC(=O)C[C@H](Cc1ccccc1)NC(=O)[C@@H](CCCCN)NC(=O)[C@@H](NC(=O)[C@@H]1CSSC[C@H](NC(=O)[C@@H](NC(=O)[C@H](Cc2c[nH]cn2)NC(=O)[C@@H](NC(=O)[C@H](CCC(=O)O)NC(=O)CC(C)C)[C@@H](C)O)C(c2ccccc2)c2ccccc2)C(=O)N1)[C@@H](C)CC)C(=O)N[C@H](CCCCN)C(N)=O` [Compd 4] (Isovaleryl-ETH[Dip]CCI[dK][β3hF]K([Ahx-Palmitoyl])[dK]-NH2; disulfide 5-6) the figure was 10 to 100 nM; with `CCCCCCCCCCCCCCCC(=O)N[C@@H](CCC(=O)NCCCC[C@H](NC(=O)[C@@H](NC(=O)[C@@H]1CSSC[C@H](NC(=O)[C@@H]2CCCN2C(=O)[C@H](Cc2ccccc2)NC(=O)[C@H](Cc2c[nH]cn2)NC(=O)[C@@H](NC(=O)[C@H](CC(=O)O)NC(=O)CC(C)C)[C@@H](C)O)C(=O)N1)[C@@H](C)CC)C(=O)N[C@@H](Cc1ccccc1)C(=O)N[C@@H](CCC(=O)O)C(=O)N1CCC[C@H]1C(=O)N[C@@H](CCCNC(=N)N)C(=O)O)C(=O)O` [Compd 101] (Isovaleryl-DTHFPCCIK([γGlu-Palmitoyl])FEPR-OH; disulfide 6-7), 10 to 100 nM.
The same measure, in the same setting: with `CCCCCCCCCCCCCCCC(=O)NCCCCCC(=O)NCCCC[C@H](NC(=O)C[C@H](Cc1ccccc1)NC(=O)[C@H]1CSSC[C@H](NC(=O)CC(C)C)C(=O)N[C@@H]([C@@H](C)O)C(=O)N[C@@H](Cc2c[nH]cn2)C(=O)N[C@@H](C(c2ccccc2)c2ccccc2)C(=O)N2CCC[C@H]2C(=O)N[C@@H](C)C(=O)N[C@@H]([C@@H](C)CC)C(=O)N1)C(=O)N[C@H](CCCCN)C(N)=O` [compound 106] (Isovaleryl-CTH[Dip]PAI[dC][β3hF]K([Ahx-Palmitoyl])[dK]-NH2; disulfide 1-8) the figure was 100 to 500 nM.
On the same count and under the same terms, in the case of `CCCCCCCCCCCCCCCC(=O)NCCCCCC(=O)NCCCC[C@H](NC(=O)C[C@H](Cc1ccccc1)NC(=O)[C@@H]1CCSSCC[C@H](NC(=O)CC(C)C)C(=O)N[C@@H]([C@@H](C)O)C(=O)N[C@@H](Cc2cnc[nH]2)C(=O)N[C@@H](C(c2ccccc2)c2ccccc2)C(=O)N2CCC[C@H]2C(=O)N[C@@H](C)C(=O)N[C@@H]([C@@H](C)CC)C(=O)N1)C(=O)N[C@H](CCCCN)C(N)=O` [compound 111] (Isovaleryl-[hCys]TH[Dip]PAI[hCys][β3hF]K([Ahx-Palmitoyl])[dK]-NH2; disulfide 1-8) it was 10 to 100 nM; in that of `CCCCCCCCCCCCCCCC(=O)NCCCCCC(=O)NCCCC[C@H](NC(=O)[C@@H](NC(=O)[C@@H]1CSSC[C@H](NC(=O)CC(C)C)C(=O)N[C@@H](CCC(=O)O)C(=O)N[C@@H]([C@@H](C)O)C(=O)N[C@@H](Cc2c[nH]cn2)C(=O)N[C@@H](C(c2ccccc2)c2ccccc2)C(=O)N2CCC[C@H]2C(=O)N1)[C@@H](C)CC)C(=O)N[C@H](CC(N)=O)Cc1ccccc1` [Compd 10] (Isovaleryl-CETH[Dip]PCIK([Ahx-Palmitoyl])[β3hF]-NH2; disulfide 1-7), 100 to 500 nM.
Turning to `CC[C@H](C)[C@H](NC(=O)[C@@H]1CSSC[C@H](NC(=O)[C@H](Cc2c[nH]cn2)NC(=O)[C@@H](NC(=O)[C@H](CCC(=O)O)NC(=O)CC(C)C)[C@@H](C)O)C(=O)N2CCC[C@H]2C(=O)N1)C(=O)N[C@@H](CCCCNC(=O)COCCOCCNC(=O)COCCOCCNC(=O)CCCCCNC(=O)CCCCCCCCCCCCCCCCC(=O)O)C(=O)N[C@H](CC(=O)N[C@H](CCCCN)C(N)=O)Cc1ccccc1` [Compd 20] (Isovaleryl-ETHCPCIK([AEEA-AEEA-Ahx-C18 diacid])[β3hF][dK]-NH2; disulfide 4-6), under setting [1], the DC50 is 100 to 500 nM.
Same read-out and setting: with `CCCCCCCCCCCCCCCC(=O)NCCCCCC(=O)NCCCC[C@H](NC(=O)[C@@H](NC(=O)[C@@H]1CCSSCC[C@H](N)C(=O)N[C@@H](C(C)C)C(=O)N[C@@H](CCC(=O)O)C(=O)N[C@@H]([C@@H](C)O)C(=O)N[C@@H](Cc2c[nH]cn2)C(=O)N[C@@H](C(c2ccccc2)c2ccccc2)C(=O)N2CCC[C@H]2C(=O)N1)[C@@H](C)CC)C(=O)N[C@H](CC(N)=O)Cc1ccccc1` [Compd 16] (H-[hCys]VETH[Dip]P[hCys]IK([Ahx-Palmitoyl])[β3hF]-NH2; disulfide 1-8) the figure was more than 500 nM.
Regarding `CC(C)CC(=O)N[C@@H](CCC(=O)O)C(=O)N[C@H](C(=O)N[C@@H](Cc1c[nH]cn1)C(=O)N[C@H](C(=O)N1CCC[C@H]1C(=O)N[C@@H]1C(=O)N[C@H](C(=O)N[C@@H](CCCCNC(=O)COCCOCCNC(=O)COCCOCCNC(=O)[C@H](CN)NC(=O)CCCCCCCCCCCCCCCCC(=O)O)C(=O)N[C@H](CC(=O)N[C@H](CCCCN)C(N)=O)Cc2ccccc2)C(C)(C)SSC1(C)C)C(c1ccccc1)c1ccccc1)[C@@H](C)O` [compound 274] (Isovaleryl-ETH[Dip]P[Pen][Pen]K([AEEA-AEEA-Dap-C18 diacid])[β3hF][dK]-NH2; disulfide 6-7), the DC50 (ferroportin-GFP internalization/degradation, HEK293 cells, Table 6E) is 10 to 100 nM.
Take `CCCCCCCCCCCCCCCC(=O)NCCCCCC(=O)NCCCC[C@H](NC(=O)C[C@H](Cc1ccccc1)NC(=O)[C@@H](CCCCN)NC(=O)[C@@H](NC(=O)[C@@H]1CSSC[C@H](NC(=O)[C@H](Cc2c[nH]cn2)NC(=O)[C@@H](NC(=O)[C@H](CCC(=O)O)NC(=O)CC(C)C)[C@@H](C)O)C(=O)N2CCC[C@H]2C(=O)N1)[C@@H](C)CC)C(=O)N[C@H](CCCCN)C(N)=O` [Compd 3] (Isovaleryl-ETHCPCI[dK][β3hF]K([Ahx-Palmitoyl])[dK]-NH2; disulfide 4-6): under setting [1], the DC50 is 10 to 100 nM.
The same measure, in the same setting: in the case of `CC[C@H](C)[C@H](NC(=O)[C@@H]1CSSC[C@H](NC(=O)[C@H](Cc2c[nH]cn2)NC(=O)[C@@H](NC(=O)[C@H](CCC(=O)O)NC(=O)CC(C)C)[C@@H](C)O)C(=O)N2CCC[C@H]2C(=O)N1)C(=O)N[C@H](CCCCN)C(=O)N[C@H](CC(=O)N[C@@H](CCCCNC(=O)COCCOCCNC(=O)COCCOCCNC(=O)CCCCCNC(=O)CCCCCCCCCCCCCCCCC(=O)O)C(=O)N[C@H](CCCCN)C(N)=O)Cc1ccccc1` [Compd 24] (Isovaleryl-ETHCPCI[dK][β3hF]K([AEEA-AEEA-Ahx-C18 diacid])[dK]-NH2; disulfide 4-6) it was 100 to 500 nM.
On the same count and under the same terms, in the case of `CCCCCCCCCCCCCCCC(=O)NCCCCCC(=O)NCCCC[C@H](NC(=O)C[C@H](Cc1ccccc1)NC(=O)[C@@H]1CSSC[C@H](NC(=O)[C@@H]2CCCN2C(=O)[C@@H](NC(=O)[C@H](Cc2c[nH]cn2)NC(=O)[C@@H](NC(=O)[C@H](CCC(=O)O)NC(=O)CC(C)C)[C@@H](C)O)C(c2ccccc2)c2ccccc2)C(=O)N[C@@H]([C@@H](C)CC)C(=O)N1)C(=O)N[C@H](CCCCN)C(N)=O` [Compd 8] (Isovaleryl-ETH[Dip]PCIC[β3hF]K([Ahx-Palmitoyl])[dK]-NH2; disulfide 6-8) it was 100 to 500 nM; in that of `CCCCCCCCCCCCCCCC(=O)NCCCCCC(=O)NCCCC[C@H](NC(=O)C[C@H](Cc1ccccc1)NC(=O)[C@@H]1NC(=O)[C@H]([C@@H](C)CC)NC(=O)[C@H](C)NC(=O)[C@@H]2CCCN2C(=O)[C@H](C(c2ccccc2)c2ccccc2)NC(=O)[C@H](Cc2c[nH]cn2)NC(=O)[C@H]([C@@H](C)O)NC(=O)[C@@H](NC(=O)CC(C)C)CSSC1(C)C)C(=O)N[C@H](CCCCN)C(N)=O` [compound 104] (Isovaleryl-CTH[Dip]PAI[dPen][β3hF]K([Ahx-Palmitoyl])[dK]-NH2; disulfide 1-8), 10 to 100 nM.
Still for that read-out and setting: in the case of `CCCCCCCCCCCCCCCC(=O)NCCCCCC(=O)NCCCC[C@H](NC(=O)C[C@H](Cc1ccccc1)NC(=O)[C@@H]1CSSC[C@@H](NC(=O)CC(C)C)C(=O)N[C@@H]([C@@H](C)O)C(=O)N[C@@H](Cc2c[nH]cn2)C(=O)N[C@@H](C(c2ccccc2)c2ccccc2)C(=O)N2CCC[C@H]2C(=O)N[C@@H](C)C(=O)N[C@@H]([C@@H](C)CC)C(=O)N1)C(=O)N[C@H](CCCCN)C(N)=O` [compound 107] (Isovaleryl-[dC]TH[Dip]PAIC[β3hF]K([Ahx-Palmitoyl])[dK]-NH2; disulfide 1-8) it was 10 to 100 nM.

(Values after patent US20250277012A1 (Protagonist Therapeutics, Inc., priority 2021, published 2025).)
